Data as given in PubChem BioAssay (NCI).
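All cell lines were grown in 96-well plates and treated with compound for 48 hours. TGI denotes the concentration required for complete inhibition of growth.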

Experiments:
Experiment in all cases: NCI tumour cell line growth inhibition, 48 h
[1] = tested on: HOP-92 NSCLC
[2] = tested on: ACHN renal
[3] = tested on: MOLT-4 leukemia
[4] = tested on: NCI/ADR-RES ovarian
[5] = tested on: IGROV1 ovarian
[6] = tested on: HCT-116 colon
[7] = tested on: K-562 leukemia
[8] = tested on: SF-268 CNS
[9] = tested on: SK-OV-3 ovarian
[10] = tested on: MDA-MB-435
[11] = tested on: SN12C renal
[12] = tested on: SNB-75 CNS
[13] = tested on: CAKI-1 renal
[14] = tested on: SNB-19 CNS
[15] = tested on: NCI-H522 lung
[16] = tested on: UO-31 renal

## O=C(CCCN1CCC2(CC1)CC(=O)N(N1CCCCCC1)C2=O)c1ccccc1
[1]
  TGI: > 100 µM
[2]
  TGI: > 100 µM
[3]
  TGI: > 100 µM
[4]
  TGI: > 100 µM
[5]
  TGI: > 100 µM
[6]
  TGI: > 100 µM
[7]
  TGI: > 100 µM
[8]
  TGI: > 100 µM
[9]
  TGI: > 100 µM
[10]
  TGI: > 100 µM
[11]
  TGI: > 100 µM
[12]
  TGI: > 100 µM
[13]
  TGI: > 100 µM
[14]
  TGI: > 100 µM
[15]
  TGI: > 100 µM
[16]
  TGI: > 100 µM

## C=CCOC(=O)NC1C(OC(C)[C@@H](NC(=O)OCc2ccccc2)C(=O)OC(C)(C)C)OC(COC(C)=O)C(OC(C)=O)C1OC(C)=O (some centres undefined)
[1]
  TGI: > 100 µM
[2]
  TGI: > 100 µM
[3]
  TGI: > 100 µM
[4]
  TGI: > 100 µM
[5]
  TGI: > 100 µM
[6]
  TGI: > 100 µM
[7]
  TGI: > 100 µM
[8]
  TGI: > 100 µM
[9]
  TGI: > 100 µM
[10]
  TGI: > 100 µM
[11]
  TGI: > 100 µM
[12]
  TGI: 9.46 µM
[13]
  TGI: > 100 µM
[14]
  TGI: > 100 µM
[15]
  TGI: > 100 µM
[16]
  TGI: 47.3 µM

## COc1cc(-c2cc(-c3ccccc3)nc(-c3c(OC)ccc4c(C)cc(=O)oc34)c2)cc(OC)c1OC
[1]
  TGI: > 100 µM
[2]
  TGI: > 100 µM
[3]
  TGI: > 100 µM
[4]
  TGI: > 100 µM
[5]
  TGI: > 100 µM
[6]
  TGI: > 100 µM
[7]
  TGI: > 100 µM
[8]
  TGI: > 100 µM
[9]
  TGI: > 100 µM
[10]
  TGI: > 100 µM
[11]
  TGI: > 100 µM
[12]
  TGI: > 100 µM
[13]
  TGI: > 100 µM
[14]
  TGI: > 100 µM
[15]
  TGI: > 100 µM
[16]
  TGI: > 100 µM

## CCOP(=O)(OCC)C(Nc1ccc(Br)cc1)c1cccc([N+](=O)[O-])c1 (centres undefined)
[1]
  TGI: 42.2 µM
[2]
  TGI: 47.1 µM
[3]
  TGI: 47.8 µM
[4]
  TGI: 44.8 µM
[5]
  TGI: 76.5 µM
[6]
  TGI: 25.6 µM
[7]
  TGI: 38.6 µM
[8]
  TGI: 43.6 µM
[9]
  TGI: 41.5 µM
[10]
  TGI: 36.7 µM
[11]
  TGI: 37.8 µM
[12]
  TGI: > 100 µM
[13]
  TGI: 49.7 µM
[14]
  TGI: 47.6 µM
[15]
  TGI: 28 µM
[16]
  TGI: 22.7 µM

## CCN(CC)/C(Sc1ccccc1)=C(\C(Cl)=C(Cl)Cl)[N+](=O)[O-]
[1]
  TGI: 36.4 µM
[2]
  TGI: 31.7 µM
[3]
  TGI: 31.3 µM
[4]
  TGI: > 100 µM
[5]
  TGI: 43.7 µM
[6]
  TGI: 32.8 µM
[7]
  TGI: 31.9 µM
[8]
  TGI: 58.3 µM
[9]
  TGI: 73.1 µM
[10]
  TGI: 27.7 µM
[11]
  TGI: 37.8 µM
[12]
  TGI: 57.3 µM
[13]
  TGI: 29.2 µM
[14]
  TGI: 49.9 µM
[15]
  TGI: 33.3 µM
[16]
  TGI: 28.9 µM

## Cn1c(O)c(C=Nc2ccccc2[N+](=O)[O-])c(=O)n(C)c1=O
[1]
  TGI: > 100 µM
[2]
  TGI: > 100 µM
[3]
  TGI: > 100 µM
[4]
  TGI: > 100 µM
[5]
  TGI: > 100 µM
[6]
  TGI: > 100 µM
[7]
  TGI: > 100 µM
[8]
  TGI: > 100 µM
[9]
  TGI: > 100 µM
[10]
  TGI: > 100 µM
[11]
  TGI: > 100 µM
[12]
  TGI: > 100 µM
[13]
  TGI: > 100 µM
[14]
  TGI: > 100 µM
[15]
  TGI: > 100 µM
[16]
  TGI: > 100 µM

## CCCCc1ccc(Nc2nc(SC)c3[nH]cnc3n2)cc1
[1]
  TGI: > 100 µM
[2]
  TGI: > 100 µM
[3]
  TGI: > 100 µM
[4]
  TGI: > 100 µM
[5]
  TGI: > 100 µM
[6]
  TGI: > 100 µM
[7]
  TGI: > 31.3 µM
[8]
  TGI: > 100 µM
[9]
  TGI: > 100 µM
[10]
  TGI: > 100 µM
[11]
  TGI: > 100 µM
[12]
  TGI: > 100 µM
[13]
  TGI: > 100 µM
[14]
  TGI: > 100 µM
[15]
  TGI: > 100 µM
[16]
  TGI: > 100 µM

## CN1CCN(c2ncc3c(n2)sc2c(=O)n(-c4ccccc4)cnc23)CC1
[1]
  TGI: > 100 µM
[2]
  TGI: > 100 µM
[3]
  TGI: > 100 µM
[4]
  TGI: > 100 µM
[5]
  TGI: > 100 µM
[6]
  TGI: > 100 µM
[7]
  TGI: > 100 µM
[8]
  TGI: > 100 µM
[9]
  TGI: > 100 µM
[10]
  TGI: > 100 µM
[11]
  TGI: > 100 µM
[12]
  TGI: > 100 µM
[13]
  TGI: > 100 µM
[14]
  TGI: > 100 µM
[15]
  TGI: > 100 µM
[16]
  TGI: > 100 µM

## Nc1cccc(/C=C/C(=O)N2CCN(CCOC(c3ccccc3)c3ccccc3)CC2)c1
[1]
  TGI: 26.2 µM
[2]
  TGI: 31.6 µM
[3]
  TGI: 21.2 µM
[4]
  TGI: 37.3 µM
[5]
  TGI: 33.6 µM
[6]
  TGI: 28.9 µM
[7]
  TGI: 26.7 µM
[8]
  TGI: 35 µM
[9]
  TGI: 32.7 µM
[10]
  TGI: 29.8 µM
[11]
  TGI: 33.9 µM
[12]
  TGI: 26.2 µM
[13]
  TGI: 34.8 µM
[14]
  TGI: 32.4 µM
[15]
  TGI: 28.7 µM
[16]
  TGI: 30.5 µM
